Measured values as given in patent US20100028459A1, “NUTRITIONAL SUPPLEMENT COMPOSITION FOR TREATMENT OF OCULAR DISEASES” (priority 2006, published 2010).

Columns and labels:
[1] = lutein supplementation in human; cited from earlier work
[2] = lutein supplementation and AMD incidence (our studies); assay type: in vivo; conditions: supplementation of 10 mg/day
Method: Therefore, the subject composition preferably provides preferably 10 mg of pure lutein per composition, e.g. per capsule.

[3] = AMD patients; cited from earlier work

Row | Molecule | macular pigment [1] | AMD incidence [2] | visual field loss [3]
1 | CC1=C[C@H](O)CC(C)(C)[C@H]1/C=C/C(C)=C/C=C/C(C)=C/C=C/C=C(C)/C=C/C=C(C)/C=C/C1=C(C)C[C@@H](O)CC1(C)C [Lutein] | increased macular pigment | decreases the AMD incidence | 
2 | Zinc |  |  | slows visual field loss
